In PubChem BioAssay (NCI):
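Tested at 5 concentrations; 48 h exposure; 96-well plates; endpoints linearly interpolated, else capped at highest concentration. Abbreviation: GI50, concentration required for 50% inhibition of growth. TGI: concentration producing complete growth inhibition.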

Columns and labels:
Experiment in all cases: NCI tumour cell line growth inhibition, 48 h
786-0 renal = test system: 786-0 renal
A549 NSCLC = test system: A549 NSCLC
ACHN renal = test system: ACHN renal
CAKI-1 renal = test system: CAKI-1 renal
CCRF-CEM leukemia = test system: CCRF-CEM leukemia
COLO 205 colon = test system: COLO 205 colon
DU-145 prostate = test system: DU-145 prostate
EKVX NSCLC = test system: EKVX NSCLC
HCC-2998 colon = test system: HCC-2998 colon
HCT-116 colon = test system: HCT-116 colon
HCT-15 colon = test system: HCT-15 colon
HL-60(TB) leukemia = test system: HL-60(TB) leukemia
HOP-62 NSCLC = test system: HOP-62 NSCLC
HOP-92 NSCLC = test system: HOP-92 NSCLC
HS 578T breast = test system: HS 578T breast
HT29 colon = test system: HT29 colon
IGROV1 ovarian = test system: IGROV1 ovarian
K-562 leukemia = test system: K-562 leukemia
KM12 colon = test system: KM12 colon
LOX IMVI melanoma = test system: LOX IMVI melanoma
M14 melanoma = test system: M14 melanoma
MALME-3M melanoma = test system: MALME-3M melanoma
MCF7 breast = test system: MCF7 breast
MDA-MB-231 breast = test system: MDA-MB-231 breast
MDA-MB-435 = test system: MDA-MB-435
MOLT-4 leukemia = test system: MOLT-4 leukemia
NCI-H226 lung = test system: NCI-H226 lung
NCI-H23 lung = test system: NCI-H23 lung
NCI-H460 lung = test system: NCI-H460 lung
NCI-H522 lung = test system: NCI-H522 lung
NCI/ADR-RES ovarian = test system: NCI/ADR-RES ovarian
OVCAR-3 ovarian = test system: OVCAR-3 ovarian
OVCAR-4 ovarian = test system: OVCAR-4 ovarian
OVCAR-5 ovarian = test system: OVCAR-5 ovarian
OVCAR-8 ovarian = test system: OVCAR-8 ovarian
PC-3 prostate = test system: PC-3 prostate
RPMI-8226 leukemia = test system: RPMI-8226 leukemia
RXF 393 renal = test system: RXF 393 renal
SF-268 CNS = test system: SF-268 CNS
SF-295 CNS = test system: SF-295 CNS
SF-539 CNS = test system: SF-539 CNS
SK-MEL-2 melanoma = test system: SK-MEL-2 melanoma
SK-MEL-28 melanoma = test system: SK-MEL-28 melanoma
SK-MEL-5 melanoma = test system: SK-MEL-5 melanoma
SK-OV-3 ovarian = test system: SK-OV-3 ovarian
SN12C renal = test system: SN12C renal
SNB-19 CNS = test system: SNB-19 CNS
SW-620 colon = test system: SW-620 colon
T-47D breast = test system: T-47D breast
TK-10 renal = test system: TK-10 renal
U251 CNS = test system: U251 CNS
UACC-257 melanoma = test system: UACC-257 melanoma
UACC-62 melanoma = test system: UACC-62 melanoma
UO-31 renal = test system: UO-31 renal
A498 renal = test system: A498 renal
SR leukemia = test system: SR leukemia

S=c1[nH]n2c(Cc3ccccc3)nnc2s1
TGI (786-0 renal): > 100 µM
TGI (A549 NSCLC): > 100 µM
TGI (ACHN renal): > 100 µM
TGI (CAKI-1 renal): > 100 µM
TGI (CCRF-CEM leukemia): > 100 µM
TGI (COLO 205 colon): > 100 µM
TGI (DU-145 prostate): > 100 µM
TGI (EKVX NSCLC): > 100 µM
TGI (HCC-2998 colon): > 100 µM
TGI (HCT-116 colon): > 100 µM
TGI (HCT-15 colon): > 100 µM
TGI (HL-60(TB) leukemia): > 100 µM
TGI (HOP-62 NSCLC): > 100 µM
TGI (HOP-92 NSCLC): > 100 µM
TGI (HS 578T breast): > 100 µM
TGI (HT29 colon): > 100 µM
TGI (IGROV1 ovarian): > 100 µM
TGI (K-562 leukemia): > 100 µM
TGI (KM12 colon): > 100 µM
TGI (LOX IMVI melanoma): > 100 µM
TGI (M14 melanoma): > 100 µM
TGI (MALME-3M melanoma): > 100 µM
TGI (MCF7 breast): > 100 µM
TGI (MDA-MB-231 breast): > 100 µM
TGI (MDA-MB-435): > 100 µM
TGI (MOLT-4 leukemia): > 100 µM
TGI (NCI-H226 lung): > 100 µM
TGI (NCI-H23 lung): > 100 µM
TGI (NCI-H460 lung): > 100 µM
TGI (NCI-H522 lung): > 100 µM
TGI (NCI/ADR-RES ovarian): > 100 µM
TGI (OVCAR-3 ovarian): > 100 µM
TGI (OVCAR-4 ovarian): > 100 µM
TGI (OVCAR-5 ovarian): > 100 µM
TGI (OVCAR-8 ovarian): > 100 µM
TGI (PC-3 prostate): > 100 µM
TGI (RPMI-8226 leukemia): > 100 µM
TGI (RXF 393 renal): > 100 µM
TGI (SF-268 CNS): > 100 µM
TGI (SF-295 CNS): > 100 µM
TGI (SF-539 CNS): > 100 µM
TGI (SK-MEL-2 melanoma): > 100 µM
TGI (SK-MEL-28 melanoma): > 100 µM
TGI (SK-MEL-5 melanoma): > 100 µM
TGI (SK-OV-3 ovarian): > 100 µM
TGI (SN12C renal): > 100 µM
TGI (SNB-19 CNS): > 100 µM
TGI (SW-620 colon): > 100 µM
TGI (T-47D breast): > 100 µM
TGI (TK-10 renal): > 100 µM
TGI (U251 CNS): > 100 µM
TGI (UACC-257 melanoma): > 100 µM
TGI (UACC-62 melanoma): > 100 µM
TGI (UO-31 renal): > 100 µM

Nc1cc(N)c2nc(-c3ccccc3)c(Sc3ccc(Cl)c(Cl)c3)nc2c1
GI50 (786-0 renal): 22 µM
TGI (786-0 renal): 92.1 µM
GI50 (A498 renal): 21.9 µM
TGI (A498 renal): 49.9 µM
GI50 (A549 NSCLC): 13.6 µM
TGI (A549 NSCLC): 51.9 µM
GI50 (CAKI-1 renal): 14 µM
TGI (CAKI-1 renal): 41.1 µM
GI50 (CCRF-CEM leukemia): 2.52 µM
TGI (CCRF-CEM leukemia): > 100 µM
GI50 (COLO 205 colon): 10.8 µM
TGI (COLO 205 colon): 33.6 µM
GI50 (DU-145 prostate): 11.1 µM
TGI (DU-145 prostate): 25 µM
GI50 (HCT-116 colon): 9.43 µM
TGI (HCT-116 colon): 47.9 µM
GI50 (HL-60(TB) leukemia): 8.02 µM
TGI (HL-60(TB) leukemia): > 100 µM
GI50 (HOP-62 NSCLC): 12.4 µM
TGI (HOP-62 NSCLC): 78.5 µM
GI50 (HS 578T breast): 30 µM
TGI (HS 578T breast): > 100 µM
GI50 (IGROV1 ovarian): 2.93 µM
TGI (IGROV1 ovarian): 27.8 µM
GI50 (K-562 leukemia): 16 µM
TGI (K-562 leukemia): > 100 µM
GI50 (KM12 colon): 11.3 µM
TGI (KM12 colon): > 100 µM
GI50 (LOX IMVI melanoma): 7.36 µM
TGI (LOX IMVI melanoma): 24.5 µM
GI50 (M14 melanoma): 32.2 µM
TGI (M14 melanoma): > 100 µM
GI50 (MALME-3M melanoma): 19.6 µM
TGI (MALME-3M melanoma): 50.3 µM
GI50 (MCF7 breast): 5.3 µM
TGI (MCF7 breast): 37.8 µM
GI50 (MDA-MB-231 breast): 16.6 µM
TGI (MDA-MB-231 breast): 54.2 µM
GI50 (MDA-MB-435): 18.3 µM
TGI (MDA-MB-435): 60.9 µM
GI50 (MOLT-4 leukemia): 4.08 µM
TGI (MOLT-4 leukemia): > 100 µM
GI50 (NCI-H226 lung): 3.05 µM
TGI (NCI-H226 lung): 9.19 µM
GI50 (NCI-H23 lung): 12.5 µM
TGI (NCI-H23 lung): 34.5 µM
GI50 (NCI-H460 lung): 10.5 µM
TGI (NCI-H460 lung): 33.5 µM
GI50 (NCI-H522 lung): 7.67 µM
TGI (NCI-H522 lung): 34 µM
GI50 (NCI/ADR-RES ovarian): 19.1 µM
TGI (NCI/ADR-RES ovarian): 60.4 µM
GI50 (OVCAR-3 ovarian): 11.7 µM
TGI (OVCAR-3 ovarian): 46.4 µM
GI50 (OVCAR-4 ovarian): 20 µM
TGI (OVCAR-4 ovarian): > 100 µM
GI50 (OVCAR-5 ovarian): 38.9 µM
TGI (OVCAR-5 ovarian): 59.5 µM
GI50 (OVCAR-8 ovarian): 24.7 µM
TGI (OVCAR-8 ovarian): > 100 µM
GI50 (PC-3 prostate): 5.78 µM
TGI (PC-3 prostate): 35.9 µM
GI50 (RPMI-8226 leukemia): 3.81 µM
TGI (RPMI-8226 leukemia): 31.6 µM
GI50 (RXF 393 renal): 14 µM
TGI (RXF 393 renal): 56.7 µM
GI50 (SF-268 CNS): 13.7 µM
TGI (SF-268 CNS): 51.1 µM
GI50 (SF-295 CNS): 17.7 µM
TGI (SF-295 CNS): 60.1 µM
GI50 (SF-539 CNS): 14.4 µM
TGI (SF-539 CNS): 41.8 µM
GI50 (SK-MEL-2 melanoma): 6.2 µM
TGI (SK-MEL-2 melanoma): 31.1 µM
GI50 (SK-MEL-28 melanoma): 13.7 µM
TGI (SK-MEL-28 melanoma): 56.9 µM
GI50 (SK-MEL-5 melanoma): 21.4 µM
TGI (SK-MEL-5 melanoma): 95.5 µM
GI50 (SK-OV-3 ovarian): 14.7 µM
TGI (SK-OV-3 ovarian): 39.4 µM
GI50 (SN12C renal): 23.2 µM
TGI (SN12C renal): > 100 µM
GI50 (SNB-19 CNS): 17 µM
TGI (SNB-19 CNS): 58.1 µM
GI50 (SR leukemia): 4.63 µM
TGI (SR leukemia): 35.3 µM
GI50 (SW-620 colon): 20.9 µM
TGI (SW-620 colon): 83.6 µM
GI50 (T-47D breast): 13.3 µM
TGI (T-47D breast): > 100 µM
GI50 (TK-10 renal): 14.6 µM
TGI (TK-10 renal): 31.8 µM
GI50 (U251 CNS): 10.3 µM
TGI (U251 CNS): > 100 µM
GI50 (UACC-257 melanoma): 17.6 µM
TGI (UACC-257 melanoma): 59 µM
GI50 (UACC-62 melanoma): 6.7 µM
TGI (UACC-62 melanoma): 42.8 µM
GI50 (UO-31 renal): 14 µM
TGI (UO-31 renal): 76.7 µM
